This test relates to A. pullulans NAC8 yellow laccase. Briefly: absorbance at […] nm, double reciprocal plot. The test is classed as biochemical, Aureobasidium pullulans. The settings on record: guaiacol 0.1-3.0 mM; standard assay: acetate buffer pH 5.0, 25 °C.

Data on one compound can be found in PMC6299892 (Journal of Genetic Engineering & Biotechnology, 2016).

Broadly, the Km is the substrate concentration at which the rate is half of its maximum.

For the compound `COc1ccccc1O` [guaiacol, 2-methoxyphenol], the Michaelis constant (Km) came to 1050 ± 120 µM.
